Here are results for three compounds from ChEMBL document CHEMBL1201862, “PubChem BioAssay data set” (2004).

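Grown in 96-well plates, cells were treated for 48 hours with each compound at five concentrations. Insufficient inhibition: endpoint recorded as highest concentration tested. At the GI50, growth is halved.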 Calls of active or inactive are those of the source. Rule as the data show it: active = GI50 up to about 1.1 µM and inactive = higher.

Common to all, as to assay: growth of human tumour cells (NCI), 48 h
Test [1] relates to HCT-15.
Test [2] has as its system CCRF-CEM.
In test [3] the test system is OVCAR-4.
The test system of test [4] is NCI-H226.
Test [5] has as its system DMS-273.
The test system of test [6] is Malme-3M.
Test [7] concerns NCI-H23.
In test [8] the test system is LOX IMVI.
Test [9] deals with SK-MEL-28.
The test system of test [10] is HT-29.
Test [11] deals with IGROV-1.
Test [12] has as its system SW-620.
The test system of test [13] is HL-60.
The subject of test [14] is HOP-62.
Test [15] has as its system SF-268.
The subject of test [16] is RXF 393.
The test system of test [17] is SN12C.
For test [18], the system named is KM-20L2.
Test [19] has as its system SK-MEL-5.

On to `Cn1c(-c2ccccc2)c/c(=N\NS(C)(=O)=O)c2cc(S(=O)(=O)O)ccc21`, for which the GI50 in test [1] was greater than 100 µM; in test [2], > 100 µM (inactive); in test [3], > 100 µM (inactive); in test [4], > 100 µM (inactive); in test [5], > 100 µM (inactive); in test [6], > 100 µM (inactive). Further, the GI50 in [7], in test [8], in test [9], in [10], in test [11] and in [12] was > 100 µM (inactive) each time. Further, the GI50 in test [13], in [14], in test [15], in [16], in test [17] and in [18] was > 100 µM (inactive) throughout. For the same compound, the GI50 in test [19] was > 100 µM (inactive).
For the compound `C=CCNC(=O)N(CCCCC(NC(C)=O)C(=O)NCc1ccccc1)Cc1ccccc1` (configuration not stated), the GI50 in test [1] is greater than 100 µM; in test [2] it was > 100 µM (inactive); in test [3], > 100 µM (inactive); in test [4] it was > 100 µM (inactive); in test [5] it was > 100 µM (inactive); in [6], > 100 µM (inactive). Further, the GI50 in [7], in test [8], in [9], in [10], in [11] and in test [12] was > 100 µM (inactive) each time. Further, the GI50 in test [13], in test [14], in test [15], in test [16], in test [17] and in test [18] was > 100 µM (inactive) each time. Moreover, in [19], the GI50 is > 100 µM (inactive).
As to `COC(=O)C(Cc1nc2ccccc2nc1O)C(=O)C(=O)Nc1ccc([N+](=O)[O-])cc1[N+](=O)[O-]` (configuration not stated), the GI50 in test [1] is 17.3 µM; in test [2], 13.2 µM (inactive); in test [3] it was 20.1 µM (inactive); in test [4], 14.5 µM (inactive); in test [5] it was 17.6 µM (inactive); in test [6] it was 19.3 µM (inactive). Moreover, the GI50 in [7] is 18.7 µM (inactive); in test [8], 20.9 µM (inactive); in test [9] it was 22.6 µM (inactive); in test [10], 19.4 µM (inactive); in test [11] it was 25.6 µM (inactive); in [12], 18.7 µM (inactive). The GI50 was 21.8 µM (inactive) in test [13]; 24.2 µM (inactive) in test [14]; 21.5 µM (inactive) in test [15]; 18.3 µM (inactive) in test [16]; 19.8 µM (inactive) in test [17]; 20.4 µM (inactive) in [18]. Moreover, the GI50 in test [19] was 18.3 µM (inactive).
